{"source": "patent US9926318B2", "about": "“Tetracyclic autotaxin inhibitors” (PharmAkea, Inc., priority 2013, dated 2018)"}
{"target": "human autotaxin (ATX) (Homo sapiens (Human), UniProt Q13822)", "assay": "Human autotaxin assay (choline release from LPC, Hep3B conditioned media)", "assay_type": "biochemical", "settings": "concentrated conditioned media from Hep3B cells, LPC substrate", "description": "ATX activity is assayed in concentrated conditioned media from Hep3B human hepatocellular carcinoma cells by measuring the amount of choline released from the substrate, lysophosphatidylcholine (LPC) as it is cleaved to LPA. Conditioned media is collected from confluent Hep3B cells and concentrated 20-fold using Centriprep-30 filter devices (Millipore). […] 100 μl of a color mix containing 4.5 mM 4-aminoantipyrine, 2.7 mM N-ethyl-N-(2-hydroxy-3-sulfopropyl)-m-toluidine, 21 units/ml horseradish peroxidase and 3 units/ml choline oxidase in 50 mM Tris, pH 8, 4.5 mM MgCl2 is added and the incubation continued for 15 minutes at room temperature before reading the absorbance at 555 nm.", "units": {"IC50": "nM"}}
{"molecule": "O=C(O)CCN1CC2Cc3c(n(Cc4ccc(F)cc4)c4ccccc34)CN2C1=O", "note": "(stereo not shown) [Compound 1-21, 3-(6-(4-fluorobenzyl)-3-oxo-11,11a-dihydro-1H-imidazo[1′,5′:1,6]pyrido[3,4-b]indol-2(3H,5H,6H)-yl)propanoic acid]", "IC50": "< 500"}
{"molecule": "O=C(O)CCCN1C(=O)[C@@H]2Cc3c(n(Cc4ccc(F)cc4)c4ccccc34)CN2C1=O", "note": "[Compound 1-2, (S)-4-(6-(4-fluorobenzyl)-1,3-dioxo-11,11a-dihydro-1H-imidazo[1′,5′:1,6]pyrido[3,4-b]indol-2(3H,5H,6H)-yl)butanoic acid]", "IC50": "< 500"}
{"molecule": "O=C1OCC2Cc3c(n(Cc4ccc(F)cc4)c4ccccc34)CN12", "note": "(stereo not shown) [Compound 1-8, 6-(4-fluorobenzyl)-5,6,11,11a-tetrahydrooxazolo[3′,4′:1,6]pyrido[3,4-b]indol-3(1H)-one]", "IC50": "< 500"}
{"molecule": "O=C(O)CCN1CC(=O)N2Cc3c(c4ccccc4n3Cc3ccc(F)cc3)CC2C1=O", "note": "(stereo not shown) [Compound 1-24, 3-(7-(4-fluorobenzyl)-1,4-dioxo-3,4,6,7,12,12a-hexahydropyrazino[1′,2′:1,6]pyrido[3,4-b]indol-2(1H)-yl)propanoic acid]", "IC50": "< 500"}
{"molecule": "O=C(O)CCN1C(=O)[C@@H]2Cc3c(n(Cc4ccc(Cl)cc4F)c4ccccc34)CN2C1=O", "note": "[Compound 1-133, (S)-3-(6-(4-chloro-2-fluorobenzyl)-1,3-dioxo-11,11a-dihydro-1H-imidazo[1′,5′:1,6]pyrido[3,4-b]indol-2(3H,5H,6H)-yl)propanoic acid]", "IC50": "< 500"}
{"molecule": "N#CCN1C(=O)C2Cc3c(n(Cc4ccc(F)cc4)c4ccccc34)CN2C1=O", "note": "(racemic) [Compound 1-139, 2-(6-(4-fluorobenzyl)-1,3-dioxo-5,6,11,11a-tetrahydro-1H-imidazo[1′,5′:1,6]pyrido[3,4-b]indol-2(3H)-yl)acetonitrile]", "IC50": "< 500"}
{"molecule": "O=C(O)CCN1C(=O)C2Cc3c(n(Cc4ccc(F)cc4)c4ncccc34)CN2C1=O", "note": "(single isomer, unassigned; enta) [C114 entA, 3-{8-[(4-fluorophenyl)methyl]-12,14-dioxo-6.8.11.13-tetraazatetracyclo[7.7.0.02, 7.011,15]hexadeca-1(9),2(7),3,5-tetraen-13-yl}propionic acid]", "IC50": "< 500"}
{"molecule": "O=C1NCC2Cc3c(n(Cc4ccc(F)cc4)c4ccccc34)CN12", "note": "(racemic) [Compound 1-13, 6-(4-fluorobenzyl)-5,6,11,11a-tetrahydro-1H-imidazo[1′,5′:1,6]pyrido[3,4-b]indol-3(2H)-one]", "IC50": "< 500"}
{"molecule": "CC(C)(CN1C(=O)[C@@H]2Cc3c(n(Cc4ccc(F)cc4)c4ccccc34)CN2C1=O)C(=O)O", "note": "[Compound 1-30, (S)-3-(6-(4-fluorobenzyl)-1,3-dioxo-5,6,11,11a-tetrahydro-1H-imidazo[1′,5′:1,6]pyrido[3,4-b]indol-2(3H)-yl)-2,2-dimethylpropanoic acid]", "IC50": "< 500"}
{"molecule": "CC1(C)c2c(n(Cc3ccc(F)cc3)c3ccccc23)CN2C(=O)NC(=O)C21", "note": "(single isomer, unassigned) [A110 ent A, 6-(4-fluorobenzyl)-11,11-dimethyl-5,6,11,11a-tetrahydro-1H-imidazo[1′,5′:1,6]pyrido[3,4-b]indole-1,3(2H)-dione]", "IC50": "< 500"}
{"molecule": "CN1CC2Cc3c(n(Cc4ccc(F)cc4)c4ccccc34)CN2C1=O", "note": "(racemic) [Compound 1-14, 6-(4-fluorobenzyl)-2-methyl-5,6,11,11a-tetrahydro-1H-imidazo[1′,5′:1,6]pyrido[3,4-b]indol-3(2H)-one]", "IC50": "< 500"}
{"molecule": "O=C1C2Cc3c(n(Cc4ccc(F)cc4)c4ccccc34)CN2C(=O)N1Cc1nn[nH]n1", "note": "(racemic) [Compound 1-140, 2-((2H-tetrazol-5-yl)methyl)-6-(4-fluorobenzyl)-5,6,11,11a-tetrahydro-1H-imidazo[1′,5′:1,6]pyrido[3,4-b]indole-1,3(2H)-dione]", "IC50": "< 500"}
{"molecule": "CC1(C)c2c(n(Cc3ccc(F)cc3)c3ccccc23)CN2C(=O)NC(=O)C21", "note": "(single isomer, unassigned) [A110 ent B, 6-(4-fluorobenzyl)-11,11-dimethyl-5,6,11,11a-tetrahydro-1H-imidazo[1′,5′:1,6]pyrido[3,4-b]indole-1,3(2H)-dione]", "IC50": "< 500"}
{"molecule": "O=C(O)CCCN1C(=O)C2Cc3c(n(CCCc4ccccc4)c4ccccc34)CN2C1=O", "note": "(racemic) [Compound 1-7, 4-(1,3-dioxo-6-(3-phenylpropyl)-11,11a-dihydro-1H-imidazo[1′,5′:1,6]pyrido[3,4-b]indol-2(3H,5H,6H)-yl)butanoic acid]", "IC50": "< 500"}
{"molecule": "CC1(C)c2c(n(Cc3ccc(F)cc3)c3ncccc23)CN2C(=O)N(CCC(=O)O)C(=O)C21", "note": "(stereo not shown) [Compound C11, 3-{8-[(p-fluorophenyl)methyl]-16,16-dimethyl-12,14-dioxo-6.8.11.13-tetrazatetracyclo[7.7.0.02,7.011,15]hexadeca-1(9),2(7),3,5-tetraene-13-yl}propionic acid]", "IC50": "< 500"}
{"molecule": "CC(C)(CCN1C(=O)[C@@H]2Cc3c(n(Cc4ccc(F)cc4)c4ccccc34)CN2C1=O)C(=O)O", "note": "[Compound 1-39, (S)-4-(6-(4-fluorobenzyl)-1,3-dioxo-5,6,11,11a-tetrahydro-1H-imidazo[1′,5′:1,6]pyrido[3,4-b]indol-2(3H)-yl)-2,2-dimethylbutanoic acid]", "IC50": "< 500"}
{"molecule": "O=C(O)CCCN1C(=O)[C@H]2Cc3c(n(Cc4ccc(F)cc4)c4ccccc34)CN2C1=O", "note": "[Compound 1-3, (R)-4-(6-(4-fluorobenzyl)-1,3-dioxo-11,11a-dihydro-1H-imidazo[1′,5′:1,6]pyrido[3,4-b]indol-2(3H,5H,6H)-yl)butanoic acid]", "IC50": "< 500"}
{"molecule": "COc1ccc(Cn2c3c(c4ccccc42)C[C@H]2C(=O)N(CCCC(=O)O)C(=O)N2C3)cn1", "note": "[Compound 1-11, (S)-4-(6-((6-methoxypyridin-3-yl)methyl)-1,3-dioxo-11,11a-dihydro-1H-imidazo[1′,5′:1,6]pyrido[3,4-b]indol-2(3H,5H,6H)-yl)butanoic acid]", "IC50": "< 500"}
{"molecule": "O=C(O)CCN1C(=O)[C@@H]2Cc3c(n(Cc4ccc(Cl)cc4Cl)c4ccccc34)CN2C1=O", "note": "[Compound 1-132, (S)-3-(6-(2,4-dichlorobenzyl)-1,3-dioxo-11,11a-dihydro-1H-imidazo[1′,5′:1,6]pyrido[3,4-b]indol-2(3H,5H,6H)-yl)propanoic acid]", "IC50": "< 500"}
{"molecule": "O=C1C2Cc3c(n(Cc4ccc(F)cc4)c4ccccc34)CN2C(=O)N1CCO", "note": "(stereo not shown) [Compound 1-121, 6-(4-fluorobenzyl)-2-(2-hydroxyethyl)-5,6,11,11a-tetrahydro-1H-imidazo[1′,5′:1,6]pyrido[3,4-b]indole-1,3(2H)-dione]", "IC50": "< 500"}
{"molecule": "O=C1NC(=O)N2Cc3c(c4ccc(Cl)cc4n3Cc3ccc(F)cc3)C[C@@H]12", "note": "[Compound 1-26, (S)-8-chloro-6-(4-fluorobenzyl)-5,6,11,11a-tetrahydro-1H-imidazo[1′,5′:1,6]pyrido[3,4-b]indole-1,3(2H)-dione]", "IC50": "> 1000"}
{"molecule": "O=C1NCC(=O)N2Cc3c(c4ccccc4n3Cc3ccc(F)cc3)CC12", "note": "(racemic) [Compound 1-16, 7-(4-fluorobenzyl)-2,3,6,7,12,12a-hexahydropyrazino[1′,2′:1,6]pyrido[3,4-b]indole-1,4-dione]", "IC50": "< 500"}
{"molecule": "O=C(O)CCCN1C(=O)[C@@H]2Cc3c(n(Cc4ccc(F)cc4)c4cc(Cl)ccc34)CN2C1=O", "note": "[Compound 1-27, (S)-4-(8-chloro-6-(4-fluorobenzyl)-1,3-dioxo-5,6,11,11a-tetrahydro-1H-imidazo[1′,5′:1,6]pyrido[3,4-b]indol-2(3H)-yl)butanoic acid]", "IC50": "> 1000"}
{"molecule": "COc1ccc(Cn2c3c(c4ccccc42)C[C@H]2C(=O)N(CC4(C(=O)O)CC4)C(=O)N2C3)cn1", "note": "[Compound 1-18, (S)-1-((6-((6-methoxypyridin-3-yl)methyl)-1,3-dioxo-5,6,11,11a-tetrahydro-1H-imidazo[1′,5′:1,6]pyrido[3,4-b]indol-2(3H)-yl)methyl)cyclopropane-1-carboxylic acid]", "IC50": "< 500"}
{"molecule": "O=C(O)CCN1C(=O)C2Cc3c(n(Cc4ccc(F)cc4)c4ncccc34)CN2C1=O", "note": "(stereo not shown) [Compound C114, 3-{8-[(4-fluorophenyl)methyl]-12,14-dioxo-6.8.11.13-tetraazatetracyclo[7.7.0.02, 7.011,15]hexadeca-1(9),2(7),3,5-tetraen-13-yl}propionic acid]", "IC50": "< 500"}
{"molecule": "O=C(O)CCN1C(=O)[C@@H]2Cc3c(n(Cc4ccc(F)cc4F)c4ccccc34)CN2C1=O", "note": "[Compound 1-134, (S)-3-(6-(2,4-difluorobenzyl)-1,3-dioxo-11,11a-dihydro-1H-imidazo[1′,5′:1,6]pyrido[3,4-b]indol-2(3H,5H,6H)-yl)propanoic acid]", "IC50": "< 500"}
{"molecule": "O=C1NC(=S)N2Cc3c(c4ccccc4n3Cc3ccc(F)cc3)C[C@@H]12", "note": "[Compound E2, (S)-6-(4-fluorobenzyl)-3-thioxo-2,3,5,6,11,11a-hexahydro-1H-imidazo[1′,5′:1,6]pyrido[3,4-b]indol-1-one]", "IC50": "< 500"}
{"molecule": "O=C(O)CCN1C(=O)C2Cc3c(n(Cc4ccc(F)cc4)c4ncccc34)CN2C1=O", "note": "(single isomer, unassigned; entb) [C114 entB, 3-{8-[(4-fluorophenyl)methyl]-12,14-dioxo-6.8.11.13-tetraazatetracyclo[7.7.0.02, 7.011,15]hexadeca-1(9),2(7),3,5-tetraen-13-yl}propionic acid]", "IC50": "< 500"}
{"molecule": "O=C1NC(=S)N2Cc3c(c4cccnc4n3Cc3ccc(F)cc3)CC12", "note": "(stereo not shown) [Compound E3]", "IC50": "< 500"}
{"molecule": "O=C1NC(=O)N2Cc3c(c4ccccc4n3Cc3ccc(F)cc3)C[C@@H]12", "note": "[Compound 1-130, (S)-6-(4-fluorobenzyl)-5,6,11,11a-tetrahydro-1H-imidazo[1′,5′:1,6]pyrido[3,4-b]indole-1,3(2H)-dione]", "IC50": "< 500"}
{"molecule": "CN1C(=O)C2Cc3c(n(Cc4ccc(F)cc4)c4ccccc34)CN2C1=O", "note": "(racemic) [Compound 1-129, 6-(4-fluorobenzyl)-2-methyl-5,6,11,11a-tetrahydro-1H-imidazo[1′,5′:1,6]pyrido[3,4-b]indole-1,3(2H)-dione]", "IC50": "< 500"}
